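Interpolation was linear, between the two tested concentrations surrounding the appropriate level; five concentrations were tested over 48 hours in 96-well plates. GI50 = concentration required for 50% inhibition of growth. TGI is the concentration that stops growth completely.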 Active and inactive are the calls of the source. Rule as the data show it: active = GI50 below about 0.43 µM; inactive = the rest.
tested on: CCRF-CEM leukemia; assay: NCI tumour cell line growth inhibition, 48 h

Row | SMILES | GI50 [µM] | TGI [µM]
1 | Cn1c2ccccc2c2c3c(c4c5cc(Br)ccc5n(C)c4c21)C(=O)N(O)C3=O | 0.0323 | 0.185
2 | C=C1CC[C@@H]2[C@](C)(COC(C)=O)[C@H](OC(C)=O)CC[C@@]2(C)[C@@H]1CC(Sc1ccccc1)C1=CCOC1=O (some centres undefined) | 0.266 | 1.19
3 | CN(C)CCCNC(=O)c1cc2[nH]c3c(cnc4ccc([N+](=O)[O-])cc43)c(=O)c2n1C | 14.5 | 30.6

tested on: SR leukemia; assay: NCI tumour cell line growth inhibition, 48 h

Row | SMILES | GI50 [µM] | TGI [µM]
4 | C=C(CNCc1ccccc1)c1ccc(C(=O)Nc2ccccc2N)cc1 | 3.54 | > 100
5 | Cn1c2ccccc2c2c3c(c4c5cc(Br)ccc5n(C)c4c21)C(=O)N(O)C3=O | 0.0156 | 0.584
6 | C=C1CC[C@@H]2[C@](C)(COC(C)=O)[C@H](OC(C)=O)CC[C@@]2(C)[C@@H]1CC(Sc1ccccc1)C1=CCOC1=O (some centres undefined) | 0.553 | 3.66
7 | CN(C)CCCNC(=O)c1cc2[nH]c3c(cnc4ccc([N+](=O)[O-])cc43)c(=O)c2n1C | 14.5 | 43.3

tested on: HOP-92 NSCLC; assay: NCI tumour cell line growth inhibition, 48 h

Row | SMILES | GI50 [µM] | TGI [µM]
8 | C=C(CNCc1ccccc1)c1ccc(C(=O)Nc2ccccc2N)cc1 | 15.1 | 55.9
9 | Cn1c2ccccc2c2c3c(c4c5cc(Br)ccc5n(C)c4c21)C(=O)N(O)C3=O | 0.18 | 
10 | C=C1CC[C@@H]2[C@](C)(COC(C)=O)[C@H](OC(C)=O)CC[C@@]2(C)[C@@H]1CC(Sc1ccccc1)C1=CCOC1=O (some centres undefined) | 2.71 | 8.71
11 | CN(C)CCCNC(=O)c1cc2[nH]c3c(cnc4ccc([N+](=O)[O-])cc43)c(=O)c2n1C | 13.5 | 32.1

tested on: SF-295 CNS; assay: NCI tumour cell line growth inhibition, 48 h

Row | SMILES | GI50 [µM] | TGI [µM] | outcome
12 | C=C(CNCc1ccccc1)c1ccc(C(=O)Nc2ccccc2N)cc1 | 7.28 | 37 | 
13 | Cn1c2ccccc2c2c3c(c4c5cc(Br)ccc5n(C)c4c21)C(=O)N(O)C3=O | 0.217 | 0.981 | 
14 | O=[N+]([O-])C(=C(Cl)Cl)/C(Cl)=C(\Cl)Br |  |  | inactive
15 | C=C1CC[C@@H]2[C@](C)(COC(C)=O)[C@H](OC(C)=O)CC[C@@]2(C)[C@@H]1CC(Sc1ccccc1)C1=CCOC1=O (some centres undefined) | 4.12 | 27.3 | 
16 | CN(C)CCCNC(=O)c1cc2[nH]c3c(cnc4ccc([N+](=O)[O-])cc43)c(=O)c2n1C | 26.9 | 51.4 | 

tested on: A549 NSCLC; assay: NCI tumour cell line growth inhibition, 48 h

Row | SMILES | GI50 [µM] | TGI [µM] | outcome
17 | C=C(CNCc1ccccc1)c1ccc(C(=O)Nc2ccccc2N)cc1 | 7.34 | > 100 | 
18 | Cn1c2ccccc2c2c3c(c4c5cc(Br)ccc5n(C)c4c21)C(=O)N(O)C3=O | 0.262 | > 100 | 
19 | O=[N+]([O-])C(=C(Cl)Cl)/C(Cl)=C(\Cl)Br |  |  | inactive
20 | C=C1CC[C@@H]2[C@](C)(COC(C)=O)[C@H](OC(C)=O)CC[C@@]2(C)[C@@H]1CC(Sc1ccccc1)C1=CCOC1=O (some centres undefined) | 2.73 | 7.77 | 
21 | CN(C)CCCNC(=O)c1cc2[nH]c3c(cnc4ccc([N+](=O)[O-])cc43)c(=O)c2n1C | 17.9 | 32.1 | 

tested on: SK-OV-3 ovarian; assay: NCI tumour cell line growth inhibition, 48 h

Row | SMILES | GI50 [µM] | TGI [µM]
22 | C=C(CNCc1ccccc1)c1ccc(C(=O)Nc2ccccc2N)cc1 | 4.22 | 22.8
23 | C=C1CC[C@@H]2[C@](C)(COC(C)=O)[C@H](OC(C)=O)CC[C@@]2(C)[C@@H]1CC(Sc1ccccc1)C1=CCOC1=O (some centres undefined) | 4.44 | 16.8
24 | CN(C)CCCNC(=O)c1cc2[nH]c3c(cnc4ccc([N+](=O)[O-])cc43)c(=O)c2n1C | 17.3 | 37.9

tested on: EKVX NSCLC; assay: NCI tumour cell line growth inhibition, 48 h

Row | SMILES | GI50 [µM] | TGI [µM]
25 | C=C(CNCc1ccccc1)c1ccc(C(=O)Nc2ccccc2N)cc1 | 32.5 | > 100
26 | C=C1CC[C@@H]2[C@](C)(COC(C)=O)[C@H](OC(C)=O)CC[C@@]2(C)[C@@H]1CC(Sc1ccccc1)C1=CCOC1=O (some centres undefined) | 2.43 | 10.4
27 | CN(C)CCCNC(=O)c1cc2[nH]c3c(cnc4ccc([N+](=O)[O-])cc43)c(=O)c2n1C | 23.5 | 52.3

tested on: NCI-H522 lung; assay: NCI tumour cell line growth inhibition, 48 h

Row | SMILES | GI50 [µM] | TGI [µM]
28 | C=C(CNCc1ccccc1)c1ccc(C(=O)Nc2ccccc2N)cc1 | 1.78 | 6.01
29 | Cn1c2ccccc2c2c3c(c4c5cc(Br)ccc5n(C)c4c21)C(=O)N(O)C3=O | 0.167 | > 100
30 | C=C1CC[C@@H]2[C@](C)(COC(C)=O)[C@H](OC(C)=O)CC[C@@]2(C)[C@@H]1CC(Sc1ccccc1)C1=CCOC1=O (some centres undefined) | 1.35 | 2.98
31 | CN(C)CCCNC(=O)c1cc2[nH]c3c(cnc4ccc([N+](=O)[O-])cc43)c(=O)c2n1C | 17.4 | 32.1

tested on: 786-0 renal; assay: NCI tumour cell line growth inhibition, 48 h

Row | SMILES | GI50 [µM] | TGI [µM]
32 | C=C(CNCc1ccccc1)c1ccc(C(=O)Nc2ccccc2N)cc1 | 4.44 | > 100
33 | Cn1c2ccccc2c2c3c(c4c5cc(Br)ccc5n(C)c4c21)C(=O)N(O)C3=O | 0.289 | 1.4
34 | C=C1CC[C@@H]2[C@](C)(COC(C)=O)[C@H](OC(C)=O)CC[C@@]2(C)[C@@H]1CC(Sc1ccccc1)C1=CCOC1=O (some centres undefined) | 1.9 | 3.64

tested on: K-562 leukemia; assay: NCI tumour cell line growth inhibition, 48 h

Row | SMILES | GI50 [µM] | TGI [µM]
35 | C=C(CNCc1ccccc1)c1ccc(C(=O)Nc2ccccc2N)cc1 | 2.58 | > 100
36 | Cn1c2ccccc2c2c3c(c4c5cc(Br)ccc5n(C)c4c21)C(=O)N(O)C3=O | 0.197 | > 100
37 | C=C1CC[C@@H]2[C@](C)(COC(C)=O)[C@H](OC(C)=O)CC[C@@]2(C)[C@@H]1CC(Sc1ccccc1)C1=CCOC1=O (some centres undefined) | 0.699 | 3.69
38 | CN(C)CCCNC(=O)c1cc2[nH]c3c(cnc4ccc([N+](=O)[O-])cc43)c(=O)c2n1C | 15.8 | 33.1

tested on: IGROV1 ovarian; assay: NCI tumour cell line growth inhibition, 48 h

Row | SMILES | GI50 [µM] | TGI [µM]
39 | C=C(CNCc1ccccc1)c1ccc(C(=O)Nc2ccccc2N)cc1 | 3.21 | 36.9
40 | Cn1c2ccccc2c2c3c(c4c5cc(Br)ccc5n(C)c4c21)C(=O)N(O)C3=O | 0.284 | > 100
41 | CN(C)CCCNC(=O)c1cc2[nH]c3c(cnc4ccc([N+](=O)[O-])cc43)c(=O)c2n1C | 12.5 | 27.7

tested on: SNB-19 CNS; assay: NCI tumour cell line growth inhibition, 48 h

Row | SMILES | GI50 [µM] | TGI [µM] | outcome
42 | C=C(CNCc1ccccc1)c1ccc(C(=O)Nc2ccccc2N)cc1 | 16.4 | 78.5 | 
43 | Cn1c2ccccc2c2c3c(c4c5cc(Br)ccc5n(C)c4c21)C(=O)N(O)C3=O | 0.0536 | > 100 | 
44 | O=[N+]([O-])C(=C(Cl)Cl)/C(Cl)=C(\Cl)Br |  |  | inactive
45 | C=C1CC[C@@H]2[C@](C)(COC(C)=O)[C@H](OC(C)=O)CC[C@@]2(C)[C@@H]1CC(Sc1ccccc1)C1=CCOC1=O (some centres undefined) | 1.78 | 3.77 | 
46 | CN(C)CCCNC(=O)c1cc2[nH]c3c(cnc4ccc([N+](=O)[O-])cc43)c(=O)c2n1C | 17.7 | 33.6 | 

tested on: LOX IMVI melanoma; assay: NCI tumour cell line growth inhibition, 48 h

Row | SMILES | GI50 [µM] | TGI [µM]
47 | C=C(CNCc1ccccc1)c1ccc(C(=O)Nc2ccccc2N)cc1 | 2.45 | 8.88
48 | C=C1CC[C@@H]2[C@](C)(COC(C)=O)[C@H](OC(C)=O)CC[C@@]2(C)[C@@H]1CC(Sc1ccccc1)C1=CCOC1=O (some centres undefined) | 0.297 | 1.19
49 | CN(C)CCCNC(=O)c1cc2[nH]c3c(cnc4ccc([N+](=O)[O-])cc43)c(=O)c2n1C | 14.4 | 27.5

tested on: OVCAR-5 ovarian; assay: NCI tumour cell line growth inhibition, 48 h

Row | SMILES | GI50 [µM] | TGI [µM] | outcome
50 | C=C(CNCc1ccccc1)c1ccc(C(=O)Nc2ccccc2N)cc1 | 14.4 | 40.1 | 
51 | O=[N+]([O-])C(=C(Cl)Cl)/C(Cl)=C(\Cl)Br |  |  | inactive
52 | C=C1CC[C@@H]2[C@](C)(COC(C)=O)[C@H](OC(C)=O)CC[C@@]2(C)[C@@H]1CC(Sc1ccccc1)C1=CCOC1=O (some centres undefined) | 2.46 | 4.67 | 

From PubChem BioAssay (NCI)
